Where a name gives a salt, the structure may show the parent alone.
Target: T1, MerTK (Homo sapiens, UniProt Q12866)
T1 construct: endogenous in cells; host or cells: Jurkat cells
T1 sequence (Q12866 21-999): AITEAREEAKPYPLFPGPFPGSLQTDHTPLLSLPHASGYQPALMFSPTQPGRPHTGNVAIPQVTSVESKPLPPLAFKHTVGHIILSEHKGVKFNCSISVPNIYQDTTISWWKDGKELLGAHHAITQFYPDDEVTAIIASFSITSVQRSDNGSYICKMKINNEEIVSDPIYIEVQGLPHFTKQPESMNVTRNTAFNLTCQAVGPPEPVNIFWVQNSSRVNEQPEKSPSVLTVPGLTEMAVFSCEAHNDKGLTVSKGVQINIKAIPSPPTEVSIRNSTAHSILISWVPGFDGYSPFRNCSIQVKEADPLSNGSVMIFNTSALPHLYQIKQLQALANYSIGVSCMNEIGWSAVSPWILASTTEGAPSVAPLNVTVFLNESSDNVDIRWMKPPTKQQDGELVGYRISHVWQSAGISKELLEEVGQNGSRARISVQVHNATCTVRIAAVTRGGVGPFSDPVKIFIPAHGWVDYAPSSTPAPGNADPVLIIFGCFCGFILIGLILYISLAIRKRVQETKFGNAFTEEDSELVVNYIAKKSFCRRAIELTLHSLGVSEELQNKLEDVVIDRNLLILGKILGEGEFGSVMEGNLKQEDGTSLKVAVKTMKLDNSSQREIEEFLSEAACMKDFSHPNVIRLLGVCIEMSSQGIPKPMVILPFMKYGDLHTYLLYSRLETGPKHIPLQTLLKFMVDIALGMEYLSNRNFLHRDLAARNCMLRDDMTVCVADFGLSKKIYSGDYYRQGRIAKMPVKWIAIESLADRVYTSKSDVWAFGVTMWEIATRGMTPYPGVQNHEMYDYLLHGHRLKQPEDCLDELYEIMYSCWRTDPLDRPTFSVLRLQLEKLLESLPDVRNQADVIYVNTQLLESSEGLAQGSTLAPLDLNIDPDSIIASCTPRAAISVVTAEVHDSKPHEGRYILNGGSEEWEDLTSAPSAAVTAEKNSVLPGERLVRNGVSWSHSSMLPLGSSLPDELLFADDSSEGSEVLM
Test: MerTk degradation in Jurkat cells (Western blot)
Format: cell-based
Conditions: Jurkat, 4 h, 0.001-1 μM, 4 hour-incubation at 37° C., read-out: Jurkat Max % MerTK Degradation
Method in brief: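 MerTK degradation was read by near-infrared Western blot, normalized to actin, in BCA-quantified lysates of Jurkat cells exposed to 0.001-1 μM compound for 4 h at 37 °C.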

Compound	Dmax [%]
COC[C@H](C)Nc1ncc2c(-c3ccc(CN4CCN(CCOCCOCCOCCOCCNc5cccc6c5n(C)c(=O)n6C5CCC(=O)NC5=O)CC4)cc3)cn([C@H]3CC[C@H](O)CC3)c2n1 (stereo partly drawn) [I-4, Trans-3-[4-[15-(4-[[4-(2-[[(2S)-1-methoxypropan-2-yl]amino]-7-[4-hydroxycyclohexyl]-7H-pyrrolo[2,3-d]pyrimidin-5-yl)phenyl]methyl]piperazin-1-yl)-4,7,10,13-tetraoxa-1-azapentadecan-1-yl]-3-methyl-2-oxo-2,3-dihydro-1H-1,3-benzodiazol-1-yl]piperidine-2,6-dione bis(formic acid)]	> 50
Cn1c(=O)n([C@H]2CCC(=O)NC2=O)c2ccc(C#CCOCCN3CC(N4CCN(Cc5ccc(-c6cn([C@H]7CC[C@H](O)CC7)c7nc(NCCC(F)(F)F)ncc67)cc5)CC4)C3)cc21 [I-92, 3-(3-methyl-2-oxo-5-[3-[2-(3-[4-[(4-[7-[trans-4-hydroxycyclohexy1]-2-[(3,3,3-trifluoropropyl)amino]-7H-pyrrolo[2,3-d]pyrimidin-5-yl]phenyl)methyl]piperazin-1-yl]azetidin-1-yl)ethoxy]prop-1-yn-1-y1]-2,3-dihydro-1H-1,3-benzodiazol-1-y1)piperidine-2,6-dione; formic acid]	> 50
CCC[C@H](C)Nc1ncc2c(n1)n([C@H]1CC[C@H](O)CC1)cc2[C@H]1CC[C@H](CN2CCN(CCCO[C@H]3CCN(Cc4ccc5c(c4)n(C)c(=O)n5C4CCC(=O)NC4=O)C3)CC2)CC1 (stereo partly drawn) [I-211, 3-(3-methyl-2-oxo-5-[[(3S)-3-[3-(4-[[trans-4-[2-[(2S)-pentan-2-ylamino]-7-[trans-4-hydroxycyclohexyl]pyrrolo[2,3-d]pyrimidin-5-yl]cyclohexyl]methyl]piperazin-1-yl)propoxy]pyrrolidin-1-yl]methyl]-1,3-benzodiazol-1-yl)piperidine-2,6-dione]	> 50
Cn1c(=O)n([C@H]2CCC(=O)NC2=O)c2ccc(CCCOCCCN3CCN(Cc4ccc(-c5cn([C@H]6CC[C@H](O)CC6)c6nc(NCCC(F)(F)F)ncc56)cc4)CC3)cc21 [I-73, 3-[3-methyl-2-oxo-5-[3-(3-[4-[(4-[7-[trans-4-hydroxycyclohexyl]-2-[(3,3,3-trifluoropropyl)amino]-7H-pyrrolo[2,3-d]pyrimidin-5-yl]phenyl)methyl]piperazin-1-yl]propoxy)propyl]-2,3-dihydro-1H-1,3-benzodiazol-1-yl]piperidine-2,6-dione; formic acid]	> 50
Cn1c(=O)n([C@H]2CCC(=O)NC2=O)c2ccc(CCCOCCCOCCCNCc3ccc(-c4cn([C@H]5CC[C@H](O)CC5)c5nc(NCCC(F)(F)F)ncc45)cc3)cc21 [I-51, 3-(3-methyl-2-oxo-5-[3-[3-(3-[[(4-[7-[trans-4-hydroxycyclohexy1]-2-[(3,3,3-trifluoropropyl)amino]-7H-pyrrolo[2,3-d]pyrimidin-5-yl]phenyl)methyl]amino]propoxy)propoxy]propyl]-2,3-dihydro-1H-1,3-benzodiazol-1-y1)piperidine-2,6-dione hydrochloride]	> 50
C[C@H](CC(F)(F)F)Nc1ncc2c(-c3ccc(CN4CCN(CCCOCCCc5ccc6c(c5)n(C)c(=O)n6C5CCC(=O)NC5=O)CC4)cc3)cn([C@H]3CC[C@H](O)CC3)c2n1 (stereo partly shown) [I-111]	> 50
Cn1c(=O)n([C@H]2CCC(=O)NC2=O)c2ccc(CCCOCCCOCCN3CCN(Cc4ccc(-c5cn([C@H]6CC[C@H](O)CC6)c6nc(NCCC(F)(F)F)ncc56)cc4)CC3)cc21 [I-78, 3-(3-methyl-2-oxo-5-[3-[3-(2-[4-[(4-[7-[trans-4-hydroxycyclohexyl]-2-[(3,3,3-trifluoropropyl)amino]-7H-pyrrolo[2,3-d]pyrimidin-5-yl]phenyl)methyl]piperazin-1-yl]ethoxy)propoxy]propy1]-2,3-dihydro-1H-1,3-benzodiazol-1-yl)piperidine-2,6-dione; formic acid]	> 50

Source: patent US20260042762A1 (Kymera Therapeutics, Inc., priority 2018, published 2026)
